Data as given in patent publication US20020052295A1, “Diacyl derivatives of propylene diamine having herbicidal activity” (priority 1999, published 2002).

Columns and labels:
SOLNI [1] = assay: Pre-emergence herbicidal activity on SOLNI (black nightshade); type: in vivo, Solanum nigrum; details: lowest tested rate giving 80% or greater inhibition, approx. 14 days after planting and treating, greenhouse
Method in brief: (§1)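 Pre-emergence soil application; seeds covered with sterilized fertilized topsoil, compound in acetone/water (50:50) applied to surface. 30/21 °C greenhouse, overhead irrigation 0.64 cm then mist/subirrigation. Readout: % inhibition vs untreated at ~14 d; GR80 value, max rate typically 1000 g/ha.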

AMARE [2] = assay: Pre-emergence herbicidal activity on AMARE (redroot pigweed); type: in vivo, Amaranthus retroflexus; details: lowest tested rate giving 80% or greater inhibition, approx. 14 days after planting and treating, greenhouse
Method in brief: as §1

DATST [3] = assay: Pre-emergence herbicidal activity on DATST (jimsonweed); type: in vivo, Datura stramonium; details: lowest tested rate giving 80% or greater inhibition, approx. 14 days after planting and treating, greenhouse
Method in brief: as §1

CHEAL [4] = assay: Pre-emergence herbicidal activity on CHEAL (common lambsquarters); type: in vivo, Chenopodium album; details: lowest tested rate giving 80% or greater inhibition, approx. 14 days after planting and treating, greenhouse
Method in brief: as §1

CONAR [5] = assay: Pre-emergence herbicidal activity on CONAR (field bindweed); type: in vivo, Convolvulus arvensis; details: lowest tested rate giving 80% or greater inhibition, approx. 14 days after planting and treating, greenhouse
Method in brief: as §1

POROL [6] = assay: Pre-emergence herbicidal activity on POROL (common purslane); type: in vivo, Portulaca oleracea; details: lowest tested rate giving 80% or greater inhibition, approx. 14 days after planting and treating, greenhouse
Method in brief: as §1

CIRAR [7] = assay: Pre-emergence herbicidal activity on CIRAR (canada thistle, seedling); type: in vivo, Cirsium arvense; details: lowest tested rate giving 80% or greater inhibition, approx. 14 days after planting and treating, greenhouse
Method in brief: as §1

ECHCG [8] = assay: Pre-emergence herbicidal activity on ECHCG (barnyardgrass); type: in vivo, Echinochloa crus-galli; details: lowest tested rate giving 80% or greater inhibition, approx. 14 days after planting and treating, greenhouse
Method in brief: as §1

PANMI [9] = assay: Pre-emergence herbicidal activity on PANMI (wild proso millet); type: in vivo, Panicum miliaceum; details: lowest tested rate giving 80% or greater inhibition, approx. 14 days after planting and treating, greenhouse
Method in brief: as §1

SORHA [10] = assay: Pre-emergence herbicidal activity on SORHA (johnsongrass, seedling); type: in vivo, Sorghum halepense; details: lowest tested rate giving 80% or greater inhibition, approx. 14 days after planting and treating, greenhouse
Method in brief: as §1

SETFA [11] = assay: Pre-emergence herbicidal activity on SETFA (giant foxtail); type: in vivo, Setaria faberi; details: lowest tested rate giving 80% or greater inhibition, approx. 14 days after planting and treating, greenhouse
Method in brief: as §1

PANDI [12] = assay: Pre-emergence herbicidal activity on PANDI (fall panicum); type: in vivo, Panicum dichotomiflorum; details: lowest tested rate giving 80% or greater inhibition, approx. 14 days after planting and treating, greenhouse
Method in brief: as §1

BRAPP [13] = assay: Pre-emergence herbicidal activity on BRAPP (broadleaf signalgrass); type: in vivo, Brachiaria platyphylla; details: lowest tested rate giving 80% or greater inhibition, approx. 14 days after planting and treating, greenhouse
Method in brief: as §1

DIGSA [14] = assay: Pre-emergence herbicidal activity on DIGSA (large crabgrass); type: in vivo, Digitaria sanguinalis; details: lowest tested rate giving 80% or greater inhibition, approx. 14 days after planting and treating, greenhouse
Method in brief: as §1

ABUTH = assay: Post-emergence herbicidal activity on ABUTH (velvetleaf); type: in vivo, Abutilon theophrasti; details: post-emergence spray; lowest tested rate with 80% or greater inhibition; about 14 days after treatment
Description: (§2) All such uses, and the biological activity enabling such uses, are embraced by the term “herbicidal” herein. Tables 15 and 16 summarize results of tests conducted as described below to determine the pre-emergence herbicidal activity, in the form of a GR80 value, of illustrative compounds of this invention. […] Where herbicidal activity was evident but 80% inhibition was not achieved at the highest rate tested (typically 1000 g/ha), an asterisk (*) is shown in the following tables. Herbicidal activity evident in the form of symptoms of phytotoxicity, in the absence of at least 80% inhibition at any rate, is indicated in the tables by “phyto”. A blank cell in the following tables indicates no herbicidal or phytotoxic response at any rate tested.
(§3) In another set of tests, the post-emergence activity of compounds of this invention was evaluated on the cool season species listed above. The following procedure was used.
(§4) A pre-prepared topsoil mixture (described above) was placed in a pot and compacted to a depth of 1.0 to 1.25 cm from the top of the pot. Seeds of each of several monocotyledonous and dicotyledonous annual plant species were placed on top of the soil The seeds were covered with a mixture of 50% topsoil and 50% Rediearth™ in sufficient quantity to level-fill the pots. The pots were then placed on a greenhouse bench and subirrigated as needed until plants growing from the seeds had emerged and reached a suitable growth stage for post-emergence treatment, typically 9 to 14 days after planting.
(§5) A known amount of each test compound dissolved or suspended in an appropriate organic solvent was diluted with a 50:50 mix of acetone and water and applied to the plants by spraying with a standard spray nozzle in a spray volume of 3,100 l/ha at a spray pressure of […] (30 psig). Control plants were not sprayed.
(§6) After treatment the plants were placed in a greenhouse with a 30/21° C. day/night temperature regime and were subsequently watered as needed for growth. Approximately 14 days after treatment, the plants were observed and herbicidal efficacy recorded as percent inhibition by comparison with control plants.

SOLNI [15] = assay: Post-emergence herbicidal activity on SOLNI (black nightshade); type: in vivo, Solanum nigrum; details: post-emergence spray; lowest tested rate with 80% or greater inhibition; about 14 days after treatment
Description: as §2, §3, §4, §5, §6

AMARE [16] = assay: Post-emergence herbicidal activity on AMARE (redroot pigweed); type: in vivo, Amaranthus retroflexus; details: post-emergence spray; lowest tested rate with 80% or greater inhibition; about 14 days after treatment
Description: as §2, §3, §4, §5, §6

DATST [17] = assay: Post-emergence herbicidal activity on DATST (jimsonweed); type: in vivo, Datura stramonium; details: post-emergence spray; lowest tested rate with 80% or greater inhibition; about 14 days after treatment
Description: as §2, §3, §4, §5, §6

CHEAL [18] = assay: Post-emergence herbicidal activity on CHEAL (common lambsquarters); type: in vivo, Chenopodium album; details: post-emergence spray; lowest tested rate with 80% or greater inhibition; about 14 days after treatment
Description: as §2, §3, §4, §5, §6

CONAR [19] = assay: Post-emergence herbicidal activity on CONAR (field bindweed); type: in vivo, Convolvulus arvensis; details: post-emergence spray; lowest tested rate with 80% or greater inhibition; about 14 days after treatment
Description: as §2, §3, §4, §5, §6

POROL [20] = assay: Post-emergence herbicidal activity on POROL (common purslane; table head prints PORAL); type: in vivo, Portulaca oleracea; details: post-emergence spray; lowest tested rate with 80% or greater inhibition; about 14 days after treatment
Description: as §2, §3, §4, §5, §6

CIRAR [21] = assay: Post-emergence herbicidal activity on CIRAR (canada thistle, seedling); type: in vivo, Cirsium arvense; details: post-emergence spray; lowest tested rate with 80% or greater inhibition; about 14 days after treatment
Description: as §2, §3, §4, §5, §6

ECHCG [22] = assay: Post-emergence herbicidal activity on ECHCG (barnyardgrass); type: in vivo, Echinochloa crus-galli; details: post-emergence spray; lowest tested rate with 80% or greater inhibition; about 14 days after treatment
Method in brief: (§7)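 Seedlings 9–14 days after planting were sprayed with compound in 50:50 acetone/water at 3,100 l/ha and 511 kPa, with unsprayed controls. Plants were then held in a greenhouse at 30/21° C. day/night. Percent inhibition versus controls was scored about 14 days after treatment.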

PANMI [23] = assay: Post-emergence herbicidal activity on PANMI (wild proso millet); type: in vivo, Panicum miliaceum; details: post-emergence spray; lowest tested rate with 80% or greater inhibition; about 14 days after treatment
SORHA [24] = assay: Post-emergence herbicidal activity on SORHA (johnsongrass, seedling); type: in vivo, Sorghum halepense; details: post-emergence spray; lowest tested rate with 80% or greater inhibition; about 14 days after treatment
Method in brief: as §7

SETFA [25] = assay: Post-emergence herbicidal activity on SETFA (giant foxtail); type: in vivo, Setaria faberi; details: post-emergence spray; lowest tested rate with 80% or greater inhibition; about 14 days after treatment
Method in brief: as §7

PANDI [26] = assay: Post-emergence herbicidal activity on PANDI (fall panicum); type: in vivo, Panicum dichotomiflorum; details: post-emergence spray; lowest tested rate with 80% or greater inhibition; about 14 days after treatment
Method in brief: as §7

SORVU = assay: Post-emergence herbicidal activity on SORVU (shattercane); type: in vivo, Sorghum vulgare; details: post-emergence spray; lowest tested rate with 80% or greater inhibition; about 14 days after treatment
Method in brief: as §7

BRAPP [27] = assay: Post-emergence herbicidal activity on BRAPP (broadleaf signalgrass); type: in vivo, Brachiaria platyphylla; details: post-emergence spray; lowest tested rate with 80% or greater inhibition; about 14 days after treatment
Method in brief: as §7

DIGSA [28] = assay: Post-emergence herbicidal activity on DIGSA (large crabgrass); type: in vivo, Digitaria sanguinalis; details: post-emergence spray; lowest tested rate with 80% or greater inhibition; about 14 days after treatment
dicotyledonous species = assay: Greenhouse post-emergence test in combination with glyphosate, dicotyledonous species; type: in vivo; details: glyphosate isopropylammonium salt alone at 1000 g a.e./ha
Description: as §4, §5, §6
(§8) In a greenhouse post-emergence test conducted according to the procedure described hereinabove, R-2-fluoro-3-trifluoromethyl-N-[1-methyl-2-(3-trifluoromethyl)phenylcarbonylamino]ethylbenzamide (the compound of Example 13) was applied at 0, 64, 125 and 250 g/ha in combination with glyphosate isopropylammonium salt at 1000 g a.e./ha. The glyphosate herbicide alone gave 72% control of dicotyledonous species and 84% control of monocotyledonous species. […] At 250 g/ha, addition of the compound of Example 13 gave 93% control of dicotyledonous species, but reduced control of monocotyledonous species to 73%.

monocotyledonous species = assay: Greenhouse post-emergence test in combination with glyphosate, monocotyledonous species; type: in vivo; details: glyphosate isopropylammonium salt alone at 1000 g a.e./ha
Description: as §4, §5, §6, §8

C[C@H](CNC(=O)c1cccc(C(F)(F)F)c1)NC(=O)Oc1ccc(F)cc1 [Example 230]
Pre-emergence activity (GR80) on SOLNI (SOLNI [1]): * (Where herbicidal activity was evident but 80% inhibition was not achieved at the highest rate tested (typically 1000 g/ha), an asterisk (*) is shown) | Pre-emergence activity (GR80) on AMARE (AMARE [2]): 500 g/ha | Pre-emergence activity (GR80) on DATST (DATST [3]): 750 g/ha | Pre-emergence activity (GR80) on CHEAL (CHEAL [4]): 1000 g/ha | Pre-emergence activity (GR80) on CONAR (CONAR [5]): phyto | Pre-emergence activity (GR80) on PORAL (POROL [6]): 500 g/ha | Pre-emergence activity (GR80) on CIRAR (CIRAR [7]): 750 g/ha | Pre-emergence activity (GR80) on ECHCG (ECHCG [8]): phyto | Pre-emergence activity (GR80) on PANMI (PANMI [9]): phyto | Pre-emergence activity (GR80) on SORHA (SORHA [10]): phyto | Pre-emergence activity (GR80) on SETFA (SETFA [11]): * (Where herbicidal activity was evident but 80% inhibition was not achieved at the highest rate tested (typically 1000 g/ha), an asterisk (*) is shown) | Pre-emergence activity (GR80) on PANDI (PANDI [12]): 1000 g/ha | Pre-emergence activity (GR80) on BRAPP (BRAPP [13]): phyto | Pre-emergence activity (GR80) on DIGSA (DIGSA [14]): 750 g/ha | Post-emergence activity (GR80) ABUTH (ABUTH): [empty] | Post-emergence activity (GR80) SOLNI (SOLNI [15]): [empty] | Post-emergence activity (GR80) AMARE (AMARE [16]): phyto | Post-emergence activity (GR80) DATST (DATST [17]): phyto | Post-emergence activity (GR80) CHEAL (CHEAL [18]): phyto | Post-emergence activity (GR80) CONAR (CONAR [19]): phyto | Post-emergence activity (GR80) PORAL (POROL [20]): phyto | Post-emergence activity (GR80) CIRAR (CIRAR [21]): [empty] | Post-emergence activity (GR80) ECHCG (ECHCG [22]): [empty] | Post-emergence activity (GR80) PANMI (PANMI [23]): [empty] | Post-emergence activity (GR80) SORHA (SORHA [24]): [empty] | Post-emergence activity (GR80) SETFA (SETFA [25]): [empty] | Post-emergence activity (GR80) PANDI (PANDI [26]): [empty] | Post-emergence activity (GR80) SORVU (SORVU): [empty] | Post-emergence activity (GR80) BRAPP (BRAPP [27]): [empty] | Post-emergence activity (GR80) DIGSA (DIGSA [28]): phyto

glyphosate isopropylammonium salt [reference compound]
control of dicotyledonous species (dicotyledonous species): 72% | control of monocotyledonous species (monocotyledonous species): 84%
